Experimental data from paper PMC4476799, “Englerin A Agonizes the TRPC4/C5 Cation Channels to Inhibit Tumor Cell Line Proliferation” (PLoS ONE, 2015).
Like-named read-outs stand apart in the source and are kept apart here.

Tested on: cancer cell lines from the cancer cell line encyclopedia (CCLE)
Experiment: Cell line profiling (CLiP) proliferation experiment
Assay type: cell-based
Parameters: ACTIVITY_AREA: scale not given here; AMAX: unit not given here
Conditions: for IC50: read-out: Crossing Point; for EC50: read-out: Inflection Point
Experimental: Compound profiling experiment and data analysis was performed as previously described. Data was imported and plotted using the Tibco Spotfire DXP application. Lines were categorized as sensitive, intermediate and refractory as follows: Amax<-40 & Inflection Point <2 ~ Sensitive, Amax>-20 & Inflection Point >10 ~ Refractory, all else were called Intermediate. Cancer Cell line HG-U133 Plus 2 data was processed and normalized as described. […] Five sets of refractory cell lines were generated from the pool of refractory cell lines trying to match the lineage composition of the set of sensitive cell lines. The limma package was used as previously described to perform the statistical comparison.

[1] = CAS-1, central_nervous_system, astrocytoma_Grade_IV
[2] = CCK-81, large_intestine, adenocarcinoma
[3] = CCRF-CEM, haematopoietic_and_lymphoid_tissue, acute_lymphoblastic_T_cell_leukaemia
[4] = CFPAC-1, pancreas, ductal_carcinoma
[5] = CI-1, haematopoietic_and_lymphoid_tissue, B_cell_lymphoma_unspecified
[6] = CMK, haematopoietic_and_lymphoid_tissue, acute_myeloid_leukaemia
[7] = CMK-11-5, haematopoietic_and_lymphoid_tissue, acute_myeloid_leukaemia
[8] = CML-T1, haematopoietic_and_lymphoid_tissue, blast_phase_chronic_myeloid_leukaemia
[9] = COLO 205, large_intestine, adenocarcinoma
[10] = COLO 668, lung, small_cell_carcinoma
[11] = COLO 775, haematopoietic_and_lymphoid_tissue, chronic_myeloid_leukaemia
[12] = COLO-320, large_intestine, adenocarcinoma
[13] = COLO-680N, oesophagus, squamous_cell_carcinoma
[14] = COR-L23, lung, large_cell_carcinoma
[15] = COR-L47, lung, small_cell_carcinoma
[16] = COR-L88, lung, small_cell_carcinoma
[17] = COR-L279, lung, small_cell_carcinoma
[18] = Calu-6, lung, undifferentiated_carcinoma
[19] = Capan-1, pancreas, ductal_carcinoma
[20] = DBTRG-05MG, central_nervous_system, astrocytoma_Grade_IV
[21] = DK-MG, central_nervous_system, astrocytoma_Grade_IV
[22] = DLD-1, large_intestine, adenocarcinoma
[23] = DMS 114, lung, small_cell_carcinoma
[24] = DMS 273, lung, small_cell_carcinoma
[25] = Daoy, central_nervous_system, NS
[26] = Detroit 562, upper_aerodigestive_tract, NS
[27] = EFM-192A, cell line EFM-192A, breast
[28] = HCC1500, cell line HCC1500, breast

CC(C)[C@@]12C[C@@H](O)[C@@](C)(O1)[C@@H]1CC[C@@H](C)[C@H]1[C@@H]2OC(=O)/C=C/c1ccccc1 [Englerin B]
effect on proliferation of cancer cell lines (524 cancer cell lines from the CCLE): no cancer cell lines have their growth potently inhibited
IC50 (A4/Fuk cells): 18.1 µM
EC50 (A4/Fuk cells): 18.1 µM
IC50 (ACC-MESO-1, ACC-MESO-1 cells): > 30 µM
IC50 (ACC-MESO-1, cell line ACC-MESO-1, pleura, NS): > 30 µM
IC50 (BDCM cells): 16.9 µM
EC50 (BDCM cells): 16.9 µM
EC50 (BHY cells): 9.33 µM
IC50 (BICR 6 cells): 23 µM
EC50 (BICR 6 cells): 23 µM
EC50 (BICR 22 cells): 15 µM
IC50 (CAL-78, bone, dedifferentiated): > 30 µM
IC50 (CAL-78 cells): > 30 µM
ACTIVITY_AREA (CAMA-1, breast, NS): 21.9
AMAX (CAMA-1, breast, NS): -43.81
RESPONSE (CAMA-1, breast, NS): INTERMEDIATE
ACTIVITY_AREA [1]: 8.27
AMAX [1]: -27.8
RESPONSE [1]: INTERMEDIATE
IC50 [1]: > 30 µM
IC50 (CAS-1 cells): > 30 µM
ACTIVITY_AREA [2]: 19.43
AMAX [2]: -61.47
RESPONSE [2]: INTERMEDIATE
IC50 [2]: 24.9 µM
EC50 [2]: 24.9 µM
IC50 (CCK-81 cells): 24.9 µM
EC50 (CCK-81 cells): 24.9 µM
ACTIVITY_AREA [3]: 12.38
AMAX [3]: -48.26
RESPONSE [3]: INTERMEDIATE
ACTIVITY_AREA [4]: 25.86
AMAX [4]: -50.08
RESPONSE [4]: INTERMEDIATE
ACTIVITY_AREA (CHL-1, skin, NS): 19.98
AMAX (CHL-1, skin, NS): -60.11
RESPONSE (CHL-1, skin, NS): INTERMEDIATE
ACTIVITY_AREA (CHP-212, autonomic_ganglia, NS): 33.44
AMAX (CHP-212, autonomic_ganglia, NS): -55.99
RESPONSE (CHP-212, autonomic_ganglia, NS): INTERMEDIATE
ACTIVITY_AREA [5]: 19.7
AMAX [5]: 16.67
RESPONSE [5]: REFRACTORY
IC50 [5]: > 30 µM
ACTIVITY_AREA [6]: 61.63
AMAX [6]: -8.06
RESPONSE [6]: REFRACTORY
IC50 [6]: > 30 µM
IC50 (CMK-11-5, CMK-11-5, haematopoietic_and_lymphoid_tissue, acute_myeloid_leukaemia): 24.1 µM
ACTIVITY_AREA [7]: 101.26
AMAX [7]: -51.95
RESPONSE [7]: INTERMEDIATE
IC50 (CML-T1, CML-T1, haematopoietic_and_lymphoid_tissue, blast_phase_chronic_myeloid_leukaemia): 17.9 µM
ACTIVITY_AREA [8]: 42.33
AMAX [8]: -73.13
RESPONSE [8]: INTERMEDIATE
ACTIVITY_AREA [9]: 33.02
AMAX [9]: -61.38
RESPONSE [9]: INTERMEDIATE
ACTIVITY_AREA [10]: 28.83
AMAX [10]: -55.03
RESPONSE [10]: INTERMEDIATE
IC50 (COLO 699, COLO-699, lung, adenocarcinoma): 3.62 µM
IC50 (COLO 704, COLO-704, ovary, NS): 6.82 µM
ACTIVITY_AREA (COLO 741, skin, NS): 12.88
AMAX (COLO 741, skin, NS): -37.55
RESPONSE (COLO 741, skin, NS): INTERMEDIATE
ACTIVITY_AREA [11]: 59.22
AMAX [11]: -93.44
RESPONSE [11]: INTERMEDIATE
IC50 [11]: 9.44 µM
EC50 [11]: 9.31 µM
ACTIVITY_AREA (COLO 792, skin, NS): 11.82
AMAX (COLO 792, skin, NS): -22.14
RESPONSE (COLO 792, skin, NS): INTERMEDIATE
IC50 (COLO 792, skin, NS): > 30 µM
EC50 (COLO 792, skin, NS): 16 µM
IC50 (COLO 792 cells): > 30 µM
EC50 (COLO 792 cells): 16 µM
ACTIVITY_AREA (COLO 829, skin, NS): 31.7
AMAX (COLO 829, skin, NS): -7.17
RESPONSE (COLO 829, skin, NS): REFRACTORY
ACTIVITY_AREA [12]: 102.29
AMAX [12]: -70.01
RESPONSE [12]: INTERMEDIATE
ACTIVITY_AREA [13]: 26.11
AMAX [13]: -34.59
RESPONSE [13]: INTERMEDIATE
ACTIVITY_AREA (COLO-699, lung, adenocarcinoma): 153.56
AMAX (COLO-699, lung, adenocarcinoma): -71.88
RESPONSE (COLO-699, lung, adenocarcinoma): INTERMEDIATE
ACTIVITY_AREA (COLO-704, ovary, NS): 138.81
AMAX (COLO-704, ovary, NS): -63.22
RESPONSE (COLO-704, ovary, NS): INTERMEDIATE
ACTIVITY_AREA (COLO-800, skin, NS): 66.95
AMAX (COLO-800, skin, NS): -43.63
RESPONSE (COLO-800, skin, NS): INTERMEDIATE
ACTIVITY_AREA [14]: 32.4
AMAX [14]: -39.64
RESPONSE [14]: INTERMEDIATE
ACTIVITY_AREA [15]: 92.1
AMAX [15]: -15.76
RESPONSE [15]: REFRACTORY
ACTIVITY_AREA [16]: 20.83
AMAX [16]: -31.56
RESPONSE [16]: INTERMEDIATE
ACTIVITY_AREA [17]: 130.29
AMAX [17]: -86.84
RESPONSE [17]: INTERMEDIATE
IC50 (COV318, COV318, ovary, NS): 25.6 µM
EC50 (COV318, COV318, ovary, NS): 25.6 µM
ACTIVITY_AREA (COV318, ovary, NS): 39.59
AMAX (COV318, ovary, NS): -54.13
RESPONSE (COV318, ovary, NS): INTERMEDIATE
IC50 (COV504, COV504, ovary, NS): > 30 µM
IC50 (COV504, cell line COV504 (ovary, NS)): > 30 µM
ACTIVITY_AREA (COV504, ovary, NS): 33.53
AMAX (COV504, ovary, NS): -45.79
RESPONSE (COV504, ovary, NS): INTERMEDIATE
ACTIVITY_AREA (COV644, ovary, NS): 35.24
AMAX (COV644, ovary, NS): -28.86
RESPONSE (COV644, ovary, NS): INTERMEDIATE
IC50 (COV644, ovary, NS): > 30 µM
EC50 (COV644, ovary, NS): 3.05 µM
IC50 (COV644 cells): > 30 µM
EC50 (COV644 cells): 3.05 µM
ACTIVITY_AREA (Calu-3, lung, adenocarcinoma): 19.78
AMAX (Calu-3, lung, adenocarcinoma): 4.65
RESPONSE (Calu-3, lung, adenocarcinoma): REFRACTORY
ACTIVITY_AREA [18]: 28.42
AMAX [18]: -47.13
RESPONSE [18]: INTERMEDIATE
ACTIVITY_AREA (Caov-3, ovary, adenocarcinoma): 128.76
AMAX (Caov-3, ovary, adenocarcinoma): -55.06
RESPONSE (Caov-3, ovary, adenocarcinoma): INTERMEDIATE
ACTIVITY_AREA [19]: 29.63
AMAX [19]: -25.75
RESPONSE [19]: INTERMEDIATE
IC50 (Ci-1, CI-1 cells): > 30 µM
IC50 (DAN-G cells): 29.3 µM
EC50 (DAN-G cells): 29.3 µM
ACTIVITY_AREA (DAN-G, pancreas, NS): 26.93
AMAX (DAN-G, pancreas, NS): -50.77
RESPONSE (DAN-G, pancreas, NS): INTERMEDIATE
IC50 (DAN-G, pancreas, NS): 29.3 µM
EC50 (DAN-G, pancreas, NS): 29.3 µM
ACTIVITY_AREA [20]: 21.88
AMAX [20]: -30.64
RESPONSE [20]: INTERMEDIATE
ACTIVITY_AREA [21]: 33.27
AMAX [21]: -67.8
RESPONSE [21]: INTERMEDIATE
IC50 [21]: 16.1 µM
EC50 [21]: 12.5 µM
ACTIVITY_AREA [22]: 71.46
AMAX [22]: -59.67
RESPONSE [22]: INTERMEDIATE
ACTIVITY_AREA [23]: 21.61
AMAX [23]: -57.16
RESPONSE [23]: INTERMEDIATE
ACTIVITY_AREA [24]: 29.68
AMAX [24]: -73.92
RESPONSE [24]: INTERMEDIATE
ACTIVITY_AREA [25]: 43
AMAX [25]: -39.21
RESPONSE [25]: INTERMEDIATE
ACTIVITY_AREA [26]: 35.45
AMAX [26]: -46.18
RESPONSE [26]: INTERMEDIATE
IC50 [27]: 22.9 µM
EC50 [27]: 22.9 µM
EC50 (EFM-192A, cell line EFM-192A): 22.9 µM
IC50 (GP2d, cell line GP2d, large_intestine): > 30 µM
IC50 (GP2d, cell line GP2d): > 30 µM
IC50 (HCC15, cell line HCC-15, lung): 15.5 µM
IC50 (HCC366, cell line HCC-366, lung): > 30 µM
IC50 (HCC366, cell line HCC-366): > 30 µM
IC50 (HCC1171, cell line HCC-1171, lung): 26.9 µM
IC50 [28]: > 30 µM
EC50 [28]: 8.24 µM
IC50 (HCC1500, cell line HCC1500): > 30 µM
IC50 (HEC-6, cell line HEC-6, endometrium): > 30 µM
IC50 (HEC-6, cell line HEC-6): > 30 µM
IC50 (HEC-50B, cell line HEC-50B, endometrium): > 30 µM
